The source of these data is patent publication US6506772B1, “Substituted [1,2,4]triazolo[1,5a]pyridine derivatives with activity as adenosine receptor ligands” (Hoffmann-La Roche Inc., priority 2000, dated 2003).

In test [1] the target is T1, human adenosine A2A receptor (Homo sapiens, UniProt P29274).
T1 construct: expressed in transfected cells; host or cells: CHO cells, Semliki Forest virus expression system; membrane preparation
The test is described as follows: Human adenosine A2A receptor [3H]-SCH-58261 binding assay. Conditions: for Ki: affinity to human adenosine A2A receptor, read-out: Ki HA2A; for selectivity (A1/A2a): calculated ratio of the affinity to the HA1 receptor to the HA2a receptor. As to the method:
Human Adenosine A2A Receptor
The human adenosine A2A receptor was recombinantly expressed in chinese hamster ovary (CHO) cells using the semliki forest virus expression system. Cells were harvested, washed twice by centrifugation, homogenized and again washed by centrifugation. The final washed membrane pellet was suspended in a Tris (50 mM) buffer containing 120 mM NaCl, 5 mM KCl, 2 mM CaCl2 and 10 MM MgCl2 (pH 7.4) (buffer A). […] Compounds were tested at 10 concentrations from 10 μM-0.3 nM. All assays were conducted in duplicate and repeated at least two times. Assay plates were incubated for 1 hour at room temperature before centrifugation and then bound ligand determined using a Packard Topcount scintillation counter. IC50 values were calculated using a non-linear curve fitting program and Ki values calculated using the Cheng-Prussoff equation.

For a further test, the target named is T2, HA1 adenosine receptor (Homo sapiens, UniProt P30542).
T2 sequence (P30542 1-326): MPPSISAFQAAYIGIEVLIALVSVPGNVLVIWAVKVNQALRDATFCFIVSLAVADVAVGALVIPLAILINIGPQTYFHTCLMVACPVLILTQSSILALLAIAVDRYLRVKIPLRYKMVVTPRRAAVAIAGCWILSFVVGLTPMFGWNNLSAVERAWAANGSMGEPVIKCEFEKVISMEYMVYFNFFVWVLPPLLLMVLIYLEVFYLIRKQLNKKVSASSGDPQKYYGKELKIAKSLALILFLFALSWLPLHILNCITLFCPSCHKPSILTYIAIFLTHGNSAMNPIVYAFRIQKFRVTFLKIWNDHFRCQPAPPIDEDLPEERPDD
As to the kind of experiment: Human adenosine A1 receptor affinity (Ki hA1). It is filed as binding.

The mark [2] stands for this setting: affinity to human adenosine A1 receptor.

The Ki is a measure of affinity in units of concentration, obtained from inhibition or displacement.

SMILES strings stand for the structures. Where two headings read alike, the source gives them in different places.

T1 sequence (P29274 whole entry): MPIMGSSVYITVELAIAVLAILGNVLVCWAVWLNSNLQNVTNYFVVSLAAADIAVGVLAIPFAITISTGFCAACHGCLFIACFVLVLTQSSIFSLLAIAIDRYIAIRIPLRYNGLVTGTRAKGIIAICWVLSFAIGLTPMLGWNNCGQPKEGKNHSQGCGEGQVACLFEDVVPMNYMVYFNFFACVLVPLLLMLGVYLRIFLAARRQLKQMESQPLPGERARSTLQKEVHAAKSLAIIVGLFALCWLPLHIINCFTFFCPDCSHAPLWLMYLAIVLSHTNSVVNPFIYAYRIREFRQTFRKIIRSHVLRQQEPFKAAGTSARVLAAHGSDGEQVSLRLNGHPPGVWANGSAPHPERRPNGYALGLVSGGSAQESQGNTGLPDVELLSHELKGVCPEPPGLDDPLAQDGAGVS

With `CCN(C(=O)c1cc(N)n2nc(-c3ccc(C)s3)nc2c1)C1CCCCC1` [Example 24, 5-Amino-2-(5-methyl-thiophen-2-yl)-[1,2,4]triazolo[1,5-a]pyridine-7-carboxylic acid cyclohexyl-ethyl-amide], in test [1], the Ki was 8.9 nM and the “selectivity (A1/A2a)” value is given as 27.8. The affinity on HA1 adenosine receptor (setting [2]) corresponds to a Ki of 247 nM.

Consider `Nc1cc(C(=O)N2CCCC2)cc2nc(-c3nccs3)nn12` [Example 25, (5-Amino-2-thiazol-2-yl-[1,2,4]triazolo[1,5-a]pyridin-7-yl)-pyrrolidin-1-yl-methanone], for which, in test [1], the Ki is 50.4 nM and the “selectivity (A1/A2a)” value is on record as 61.5. The same compound came in with a Ki at HA1 adenosine receptor (setting [2]) of 3100 nM. In the case of `CC(C)N(Cc1ccccc1)C(=O)c1cc(N)n2nc(-c3ccc(Br)o3)nc2c1` [Example 26, 5-Amino-2-(5-bromo-furan-2-yl)-[1,2,4]triazolo[1,5-a]pyridine-7-carboxylic acid benzyl-isopropyl-amide], the Ki in test [1] turned out to be 2.3 nM; at HA1 adenosine receptor (setting [2]), 30.1 nM. For the same compound, in test [1], the “selectivity (A1/A2a)” value was 13.0.

In the case of `CCN(Cc1ccccc1)C(=O)c1cc(N)n2nc(-c3ccccn3)nc2c1` [Example 29, 5-Amino-2-pyridin-2-yl-[1,2,4]triazolo[1,5-a]pyridine-7-carboxylic acid benzyl-ethyl-amide], in test [1], the Ki was 15.9 nM and the “selectivity (A1/A2a)” value is recorded as 15.3. The compound further gave a Ki at HA1 adenosine receptor (setting [2]) of 244 nM. `Nc1cc(C(=O)N2CCc3ccccc3C2)cc2nc(-c3ccccn3)nn12` [Example 30, (5-Amino-2-pyridin-2-yl-[1,2,4]triazolo[1,5-a]pyridin-7-yl)-(3,4-dihydro-1H-isoquinolin-2-yl)-methanone]: the values for the inhibition constant Ki (in test [1]; on HA1 adenosine receptor (setting [2])) were 212 nM and 2140 nM, respectively. In test [1], the “selectivity (A1/A2a)” value is listed as 10.1. With `CCN(C(=O)c1cc(N)n2nc(-c3ccccn3)nc2c1)C1CCCCC1` [Example 31, 5-Amino-2-pyridin-2-yl-[1,2,4]triazolo[1,5-a]pyridine-7-carboxylic acid cyclohexyl-ethyl-amide], the values for the Ki (in test [1]; on HA1 adenosine receptor (setting [2])) were 49.6 nM and 1130 nM, respectively. The “selectivity (A1/A2a)” value in test [1] was 22.7. Take `CN(Cc1ccccc1)C(=O)c1cc(N)n2nc(-c3ccccn3)nc2c1` [Example 32, 5-Amino-2-pyridin-2-yl-[1,2,4]triazolo[1,5-a]pyridine-7-carboxylic acid benzyl-methyl-amide]: in test [1], the Ki was determined as 28.6 nM and the “selectivity (A1/A2a)” value is recorded as 10.1. This compound also displayed a Ki on HA1 adenosine receptor (setting [2]) of 288 nM.

As for `CN(C(=O)c1cc(N)n2nc(-c3ccccn3)nc2c1)C1CCCCC1` [Example 33, 5-Amino-2-pyridin-2-yl-[1,2,4]triazolo[1,5-a]pyridine-7-carboxylic acid cyclohexyl-methyl-amide], in test [1], the Ki turned out to be 87 nM and the “selectivity (A1/A2a)” value is given as 13.5. In addition, the Ki at HA1 adenosine receptor (setting [2]) was found to be 1170 nM. The matching figures for `Nc1cc(C(=O)N2CCCCC2)cc2nc(-c3ccccn3)nn12` [Example 34, (5-Amino-2-pyridin-2-yl-[1,2,4]triazolo[1,5-a]pyridin-7-yl)-piperidin-1-yl-methanone]: 154 nM, 38.8 and 5980 nM. As for `CCN(CC)C(=O)c1cc(N)n2nc(-c3ccccn3)nc2c1` [Example 35, 5-Amino-2-pyridin-2-yl-[1,2,4]triazolo[1,5-a]pyridine-7-carboxylic acid diethylamide], in test [1], the Ki worked out at 106 nM and the “selectivity (A1/A2a)” value was 27.5. The compound also displayed a Ki on HA1 adenosine receptor (setting [2]) of 2920 nM.

Take `CCCCN(Cc1ccccc1)C(=O)c1cc(N)n2nc(-c3ccccn3)nc2c1` [Example 36, 5-Amino-2-pyridin-2-yl-[1,2,4]triazolo[1,5-a]pyridine-7-carboxylic acid benzyl-butyl-amide]: in test [1], the Ki amounted to 13.1 nM and the “selectivity (A1/A2a)” value is recorded as 15.2. Moreover, at HA1 adenosine receptor (setting [2]), the affinity, expressed as Ki, was 199 nM.

`Nc1cc(C(=O)NCc2ccccc2Br)cc2nc(-c3ccccn3)nn12` [Example 38, 5-Amino-2-pyridin-2-yl-[1,2,4]triazolo[1,5-a]pyridine-7-carboxylic acid 2-bromo-benzylamide]: the figures for the Ki (in test [1]; at HA1 adenosine receptor (setting [2])) were 23.8 nM and 109 nM, respectively. Also, the “selectivity (A1/A2a)” value in test [1] is reported as 4.6.

In the case of `Nc1cc(C(=O)NCc2ccccc2Cl)cc2nc(-c3ccccn3)nn12` [Example 39, 5-Amino-2-pyridin-2-yl-[1,2,4]triazolo[1,5-a]pyridine-7-carboxylic acid 2-chloro-benzylamide], the values for the Ki (in test [1]; on HA1 adenosine receptor (setting [2])) were 16.8 nM and 69.8 nM, respectively. Besides, in test [1], the “selectivity (A1/A2a)” value was 4.2. In turn, `Nc1cc(C(=O)N2CCCC2)cc2nc(-c3ccco3)nn12` [Example 106, (5-Amino-2-furan-2-yl-[1,2,4]triazolo[1,5-a]pyridin-7-yl)-pyrrolidin-1-yl-methanone] displayed a Ki at HA1 adenosine receptor (setting [2]) of 1730 nM. For the compound `Nc1cc(C(=O)N2CCCCC2)cc2nc(-c3ccco3)nn12` [Example 107, (5-Amino-2-furan-2-yl-[1,2,4]triazolo[1,5-a]pyridin-7-yl)-piperidin-1-yl-methanone], the Ki at HA1 adenosine receptor (setting [2]) came to 2720 nM. Same read-out and setting: then `Nc1cc(C(=O)N2CCCC2)cc2nc(-c3cccs3)nn12` [Example 128, (5-Amino-2-thiophen-2-yl-[1,2,4]triazolo[1,5-a]pyridin-7-yl)-pyrrolidin-1-yl-methanone], with 1480 nM; and `CCCN(C)C(=O)c1cc(N)n2nc(-c3ccc(Br)o3)nc2c1` [Example 268, 5-Amino-2-(5-bromo-furan-2-yl)-[1,2,4]triazolo[1,5-a]pyridine-7-carboxylic acid methyl-propyl-amide], with 275 nM; and `CC1CCCN1C(=O)c1cc(N)n2nc(-c3ccc(Br)o3)nc2c1` (stereo not drawn) [Example 270, [5-Amino-2-(5-bromo-furan-2-yl)-[1,2,4]triazolo[1,5-a]pyridin-7-yl]-(2-methyl-pyrrolidin-1-yl)-methanone], with 286 nM.

In turn, `CC1CCCN(C(=O)c2cc(N)n3nc(-c4ccc(Br)o4)nc3c2)C1` (stereo not drawn) [Example 295, [5-Amino-2-(5-bromo-furan-2-yl)-[1,2,4]triazolo[1,5-a]pyridin-7-yl]-(3,-methyl-piperidin-1-yl)-methanone] returned a Ki at HA1 adenosine receptor (setting [2]) of 130 nM. As to `Nc1cc(C(=O)N2CCSCC2)cc2nc(-c3ccc(Br)o3)nn12` [Example 297, [5-Amino-2-(5-bromo-furan-2-yl)-[1,2,4]triazolo[1,5-a]pyridin-7-yl]-thiomorpholin-4-yl-methanone], on HA1 adenosine receptor (setting [2]), the Ki came out at 253 nM. On HA1 adenosine receptor (setting [2]), `CN(CCc1ccccc1)C(=O)c1cc(N)n2nc(-c3ccc(Br)o3)nc2c1` [Example 306, 5-Amino-2-(5-bromo-furan-2-yl)-[1,2,4]triazolo[1,5-a]pyridine-7-carboxylic acid methyl-phenethyl-amide] displayed a Ki of 87.8 nM. On HA1 adenosine receptor (setting [2]), `CC1CCCCN1C(=O)c1cc(N)n2nc(-c3ccc(Br)o3)nc2c1` (stereo not drawn) [Example 336, [5-Amino-2-(5-bromo-furan-2-yl)-[1,2,4]triazolo[1,5-a]pyridin-7-yl]-(2-methyl-piperidin-1-yl)-methanone] displayed a Ki of 65.7 nM. For `CCN(CCc1ccccn1)C(=O)c1cc(N)n2nc(-c3ccc(Br)o3)nc2c1` [Example 352, 5-Amino-2-(5-bromo-furan-2-yl)-[1,2,4]triazolo[1,5-a]pyridine-7-carboxylic acid ethyl-(2-pyridin-2-yl-ethyl)-amide], affinity on HA1 adenosine receptor (setting [2]) was put at a Ki of 144 nM. On HA1 adenosine receptor (setting [2]), `CCN(CC)C(=O)C1CCCN(C(=O)c2cc(N)n3nc(-c4ccc(Br)o4)nc3c2)C1` (stereo not drawn) [Example 356, 1-[5-Amino-2-(5-bromo-furan-2-yl)-[1,2,4]triazolo[1,5-a]pyridin-7-carbonyl]-piperidine-3-carboxylic acid diethylamide] displayed a Ki of 1060 nM. `CN(C)C(=O)CN(C)C(=O)c1cc(N)n2nc(-c3ccc(Br)o3)nc2c1` [Example 384, 5-Amino-2-(5-bromo-furan-2-yl)-[1,2,4]triazolo[1,5-a]pyridine-7-carboxylic acid dimethylcarbamoylmethyl-methyl-amide] gave a Ki at HA1 adenosine receptor of 711 nM. Compound `COC[C@@H]1CCCN1C(=O)c1cc(N)n2nc(-c3ccc(Br)o3)nc2c1` [Example 385, [5-Amino-2-(5-bromo-furan-2-yl)-[1,2,4]triazolo[1,5-a]pyridin-7-yl]-(S-2-methoxymethyl-pyrrolidin-1-yl)-methanone] returned a Ki at HA1 adenosine receptor of 616 nM.

In turn, `COC[C@H]1CCCN1C(=O)c1cc(N)n2nc(-c3ccc(Br)o3)nc2c1` [Example 386, [5-Amino-2-(5-bromo-furan-2-yl)-[1,2,4]triazolo[1,5-a]pyridin-7-yl]-(R-2-methoxymethyl-pyrrolidin-1-yl)-methanone] returned a Ki at HA1 adenosine receptor of 292 nM. Still for that read-out and setting: as for `Nc1cc(C(=O)N2CCCC2)cc2nc(-c3ccccn3)nn12` [Example 410, (5-Amino-2-pyridin-2-yl-[1,2,4]triazolo[1,5-a]pyridin-7-yl)-pyrrolidin-1-yl-methanone], the figure is 1450 nM.
